Values after ≈ are worked out from the molar mass of the structure shown.
Key:
[1] = test system: Mycobacterium tuberculosis; assay: Antituberculosis activity against Mycobacterium tuberculosis H37Rv at 250 ug/ml incubated for 24 hrs measured after 2 to 4 weeks by Lowensteine-Jensen method; type: functional
[2] = test system: Mycobacterium tuberculosis; assay: Antituberculosis activity against Mycobacterium tuberculosis H37Rv after 2 to 4 weeks by Lowensteine-Jensen method; type: functional
[3] = test system: Streptococcus pneumoniae; assay: Antibacterial activity against Streptococcus pneumoniae MTCC 1936 after 24 to 48 hrs by broth microdilution method; type: functional
[4] = test system: Clostridium tetani; assay: Antibacterial activity against Clostridium tetani MTCC 449 after 24 to 48 hrs by broth microdilution method; type: functional
[5] = test system: Bacillus subtilis; assay: Antibacterial activity against Bacillus subtilis MTCC 441 after 24 to 48 hrs by broth microdilution method; type: functional
[6] = test system: Salmonella typhi; assay: Antibacterial activity against Salmonella typhi MTCC 98 after 24 to 48 hrs by broth microdilution method; type: functional, Salmonella enterica subsp. enterica serovar Typhi; details: Salmonella enterica
[7] = test system: Vibrio cholerae; assay: Antibacterial activity against Vibrio cholerae MTCC 3906 after 24 to 48 hrs by broth microdilution method; type: functional
[8] = test system: Escherichia coli; assay: Antibacterial activity against Escherichia coli MTCC 443 after 24 to 48 hrs by broth microdilution method; type: functional
[9] = test system: Candida albicans; assay: Antifungal activity against Candida albicans MTCC 227 after 24 to 48 hrs by broth microdilution method; type: functional
[10] = test system: Aspergillus fumigatus; assay: Antifungal activity against Aspergillus fumigatus MTCC 3008 after 24 to 48 hrs by broth microdilution method; type: functional
[11] = test system: Plasmodium falciparum; assay: Antimalarial activity against Plasmodium falciparum after 48 hrs; type: functional, organism-based
[12] = test system: Schizosaccharomyces pombe; assay: Cytotoxicity against Schizosaccharomyces pombe at 2.5 to 12.5 ug/ml after 17 hrs by trypan blue exclusion method; type: organism-based; details: in vivo

## CO[C@H]1/C=C/O[C@@]2(C)Oc3c(C)c(O)c4c(O)c(c(/C=N/N5CCN(C)CC5)c(O)c4c3C2=O)NC(=O)/C(C)=C\C=C\[C@H](C)[C@H](O)[C@@H](C)[C@@H](O)[C@@H](C)[C@H](OC(C)=O)[C@@H]1C [RIFAMPIN]
[1]
  inhibition at 250 µg/mL: 98%
[2]
  MIC: 48 µM (≈ 39.5 µg/mL)

## COc1ccc(C2=NN(c3ccc(F)cc3)C(c3cc4ccccc4nc3N3CCOCC3)C2)cc1 (stereo not given)
[3]
  MIC: 259 µM (≈ 125 µg/mL)
[4]
  MIC: 1040 µM (≈ 500 µg/mL)
[5]
  MIC: 518 µM (≈ 250 µg/mL)
[6]
  MIC: 207 µM (≈ 99.9 µg/mL)
[7]
  MIC: 518 µM (≈ 250 µg/mL)
[8]
  MIC: 414 µM (≈ 200 µg/mL)
[9]
  MIC: 518 µM (≈ 250 µg/mL)
[10]
  MIC: 207 µM (≈ 99.9 µg/mL)
[1]
  inhibition at 250 µg/mL: 33%
[11]
  IC50: 0.051 µM
[12]
  Activity: Non-toxic

## O=C(N[C@H](CO)[C@H](O)c1ccc([N+](=O)[O-])cc1)C(Cl)Cl [CHLORAMPHENICOL]
[3]
  MIC: 154 µM (≈ 49.8 µg/mL)
[4]
  MIC: 154 µM (≈ 49.8 µg/mL)
[5]
  MIC: 154 µM (≈ 49.8 µg/mL)
[6]
  MIC: 154 µM (≈ 49.8 µg/mL)
[7]
  MIC: 154 µM (≈ 49.8 µg/mL)
[8]
  MIC: 154 µM (≈ 49.8 µg/mL)

## NYSTATIN
[9]
  MIC: 107 µM
[10]
  MIC: 107 µM

## O=CN1N=C(c2ccc(F)cc2)CC1c1cc2ccccc2nc1N1CCOCC1 (stereo not given)
[3]
  MIC: 247 µM (≈ 99.9 µg/mL)
[4]
  MIC: 1240 µM (≈ 500 µg/mL)
[5]
  MIC: 154 µM (≈ 62.3 µg/mL)
[6]
  MIC: 1240 µM (≈ 500 µg/mL)
[7]
  MIC: 618 µM (≈ 250 µg/mL)
[8]
  MIC: 494 µM (≈ 200 µg/mL)
[9]
  MIC: 2470 µM (≈ 1000 µg/mL)
[10]
  MIC: > 2470 µM
[1]
  inhibition at 250 µg/mL: 93%
[2]
  MIC: 247 µM (≈ 99.9 µg/mL)
[11]
  IC50: 1.04 µM

## Fc1ccc(C2=NN(c3ccc(F)cc3)C(c3cc4ccccc4nc3N3CCOCC3)C2)cc1 (stereo not given)
[3]
  MIC: 265 µM (≈ 125 µg/mL)
[4]
  MIC: 132 µM (≈ 62.1 µg/mL)
[5]
  MIC: 212 µM (≈ 99.8 µg/mL)
[6]
  MIC: 212 µM (≈ 99.8 µg/mL)
[7]
  MIC: 132 µM (≈ 62.1 µg/mL)
[8]
  MIC: 265 µM (≈ 125 µg/mL)
[9]
  MIC: 212 µM (≈ 99.8 µg/mL)
[10]
  MIC: 2120 µM (≈ 1000 µg/mL)
[1]
  inhibition at 250 µg/mL: 48%
[11]
  IC50: 3.42 µM

## COc1ccc(C2=NN(C(C)=O)C(c3cc4ccccc4nc3N3CCOCC3)C2)cc1 (stereo not given)
[3]
  MIC: 145 µM (≈ 62.4 µg/mL)
[4]
  MIC: 1160 µM (≈ 500 µg/mL)
[5]
  MIC: 232 µM (≈ 99.9 µg/mL)
[6]
  MIC: 1160 µM (≈ 500 µg/mL)
[7]
  MIC: 1160 µM (≈ 500 µg/mL)
[8]
  MIC: 232 µM (≈ 99.9 µg/mL)
[9]
  MIC: 2320 µM (≈ 1000 µg/mL)
[10]
  MIC: 1160 µM (≈ 500 µg/mL)
[1]
  inhibition at 250 µg/mL: 45%
[11]
  IC50: 0.034 µM
[12]
  Activity: Toxic

## CCn1cc(C(=O)O)c(=O)c2cc(F)c(N3CCNCC3)cc21 [NORFLOXACIN]
[3]
  MIC: 31 µM (≈ 9.9 µg/mL)
[4]
  MIC: 313 µM (≈ 100 µg/mL)
[5]
  MIC: 310 µM (≈ 99 µg/mL)
[6]
  MIC: 31 µM (≈ 9.9 µg/mL)
[7]
  MIC: 31 µM (≈ 9.9 µg/mL)
[8]
  MIC: 31 µM (≈ 9.9 µg/mL)

## CC1(C)S[C@@H]2[C@H](NC(=O)[C@H](N)c3ccccc3)C(=O)N2[C@H]1C(=O)O [AMPICILLIN]
[3]
  MIC: 286 µM (≈ 99.9 µg/mL)
[4]
  MIC: 715 µM (≈ 250 µg/mL)
[5]
  MIC: 715 µM (≈ 250 µg/mL)
[6]
  MIC: 286 µM (≈ 99.9 µg/mL)
[7]
  MIC: 286 µM (≈ 99.9 µg/mL)
[8]
  MIC: 286 µM (≈ 99.9 µg/mL)

## COC1=CC(=O)C[C@@H](C)[C@]12Oc1c(Cl)c(OC)cc(OC)c1C2=O [GRISEOFULVIN]
[9]
  MIC: 1150 µM (≈ 405 µg/mL)
[10]
  MIC: 283 µM (≈ 99.8 µg/mL)

## Fc1ccc(N2N=C(c3ccc(Cl)cc3)CC2c2cc3ccccc3nc2N2CCOCC2)cc1 (stereo not given)
[3]
  MIC: 1030 µM (≈ 500 µg/mL)
[4]
  MIC: 1030 µM (≈ 500 µg/mL)
[5]
  MIC: 410 µM (≈ 200 µg/mL)
[6]
  MIC: 410 µM (≈ 200 µg/mL)
[7]
  MIC: 513 µM (≈ 250 µg/mL)
[8]
  MIC: 205 µM (≈ 99.8 µg/mL)
[9]
  MIC: 2050 µM (≈ 1000 µg/mL)
[10]
  MIC: 205 µM (≈ 99.8 µg/mL)
[1]
  inhibition at 250 µg/mL: 24%
[11]
  IC50: 1.79 µM

## NC(=S)N1N=C(c2ccc(Cl)cc2)CC1c1cc2ccccc2nc1N1CCOCC1 (stereo not given)
[3]
  MIC: 553 µM (≈ 250 µg/mL)
[4]
  MIC: 221 µM (≈ 99.9 µg/mL)
[5]
  MIC: 221 µM (≈ 99.9 µg/mL)
[6]
  MIC: 553 µM (≈ 250 µg/mL)
[7]
  MIC: 221 µM (≈ 99.9 µg/mL)
[8]
  MIC: 442 µM (≈ 200 µg/mL)
[9]
  MIC: 2210 µM (≈ 1000 µg/mL)
[10]
  MIC: 221 µM (≈ 99.9 µg/mL)
[1]
  inhibition at 250 µg/mL: 45%
[11]
  IC50: 4.65 µM

## C=C[C@H]1CN2CC[C@H]1C[C@H]2[C@H](O)c1ccnc2ccc(OC)cc12 [QUININE]
[11]
  IC50: 0.826 µM

## COc1ccc(C2=NN(C=O)C(c3cc4ccccc4nc3N3CCOCC3)C2)cc1 (stereo not given)
[3]
  MIC: 240 µM (≈ 100 µg/mL)
[4]
  MIC: 1200 µM (≈ 500 µg/mL)
[5]
  MIC: 600 µM (≈ 250 µg/mL)
[6]
  MIC: 240 µM (≈ 100 µg/mL)
[7]
  MIC: 480 µM (≈ 200 µg/mL)
[8]
  MIC: 480 µM (≈ 200 µg/mL)
[9]
  MIC: 1200 µM (≈ 500 µg/mL)
[10]
  MIC: 2400 µM (≈ 1000 µg/mL)
[1]
  inhibition at 250 µg/mL: 36%
[11]
  IC50: 1.87 µM

## NC(=S)N1N=C(c2ccc(F)cc2)CC1c1cc2ccccc2nc1N1CCOCC1 (stereo not given)
[3]
  MIC: 229 µM (≈ 99.7 µg/mL)
[4]
  MIC: 1150 µM (≈ 500 µg/mL)
[5]
  MIC: 1150 µM (≈ 500 µg/mL)
[6]
  MIC: 143 µM (≈ 62.3 µg/mL)
[7]
  MIC: 574 µM (≈ 250 µg/mL)
[8]
  MIC: 574 µM (≈ 250 µg/mL)
[9]
  MIC: 229 µM (≈ 99.7 µg/mL)
[10]
  MIC: 1150 µM (≈ 500 µg/mL)
[1]
  inhibition at 250 µg/mL: 54%
[11]
  IC50: 1.84 µM

## CC(=O)N1N=C(c2ccc(Cl)cc2)CC1c1cc2ccccc2nc1N1CCOCC1 (stereo not given)
[3]
  MIC: 1150 µM (≈ 500 µg/mL)
[4]
  MIC: 149 µM (≈ 64.8 µg/mL)
[5]
  MIC: 229 µM (≈ 99.6 µg/mL)
[6]
  MIC: 574 µM (≈ 250 µg/mL)
[7]
  MIC: 229 µM (≈ 99.6 µg/mL)
[8]
  MIC: 229 µM (≈ 99.6 µg/mL)
[9]
  MIC: 1150 µM (≈ 500 µg/mL)
[10]
  MIC: 1150 µM (≈ 500 µg/mL)
[1]
  inhibition at 250 µg/mL: 96%
[2]
  MIC: 143 µM (≈ 62.2 µg/mL)
[11]
  IC50: 2.87 µM

## CC(=O)N1N=C(c2ccc(F)cc2)CC1c1cc2ccccc2nc1N1CCOCC1 (stereo not given)
[3]
  MIC: 238 µM (≈ 99.6 µg/mL)
[4]
  MIC: 238 µM (≈ 99.6 µg/mL)
[5]
  MIC: 597 µM (≈ 250 µg/mL)
[6]
  MIC: 238 µM (≈ 99.6 µg/mL)
[7]
  MIC: 597 µM (≈ 250 µg/mL)
[8]
  MIC: 597 µM (≈ 250 µg/mL)
[9]
  MIC: 597 µM (≈ 250 µg/mL)
[10]
  MIC: 1190 µM (≈ 500 µg/mL)
[1]
  inhibition at 250 µg/mL: 32%
[11]
  IC50: 1.67 µM

## COc1ccc(C2=NN(C(N)=S)C(c3cc4ccccc4nc3N3CCOCC3)C2)cc1 (stereo not given)
[3]
  MIC: 223 µM (≈ 99.8 µg/mL)
[4]
  MIC: 446 µM (≈ 200 µg/mL)
[5]
  MIC: 446 µM (≈ 200 µg/mL)
[6]
  MIC: 223 µM (≈ 99.8 µg/mL)
[7]
  MIC: 558 µM (≈ 250 µg/mL)
[8]
  MIC: 558 µM (≈ 250 µg/mL)
[9]
  MIC: 1120 µM (≈ 500 µg/mL)
[10]
  MIC: 223 µM (≈ 99.8 µg/mL)
[1]
  inhibition at 250 µg/mL: 63%
[11]
  IC50: 3.24 µM

## O=C(O)c1cn(C2CC2)c2cc(N3CCNCC3)c(F)cc2c1=O [CIPROFLOXACIN]
[3]
  MIC: 150 µM (≈ 49.7 µg/mL)
[5]
  MIC: 150 µM (≈ 49.7 µg/mL)
[6]
  MIC: 75 µM (≈ 24.9 µg/mL)
[7]
  MIC: 75 µM (≈ 24.9 µg/mL)
[8]
  MIC: 75 µM (≈ 24.9 µg/mL)

## NNC(=O)c1ccncc1 [ISONIAZID]
[2]
  MIC: 1 µM (≈ 0.137 µg/mL)

Source: ChEMBL document CHEMBL3785013, “Novel morpholinoquinoline nucleus clubbed with pyrazoline scaffolds: Synthesis, antibacterial, antitubercular and antimalarial activities” (Eur J Med Chem, 2016)
